Assay results taken from patent US7935853B2, “Micronized composition of a 2,4-disubstituted phenol derivative” (priority 2008, dated 2011).
Converted amounts (≈) assume the structure as drawn.

Legend:
[1] = First phase I clinical trial, single oral dose, safety and pharmacokinetics; type: in vivo, human; conditions: healthy volunteers
Description: (§1) 2,4,6-triiodophenol is a potent leukotriene B4 (LTB4) synthesis inhibitor that is currently under clinical development. The exact mechanism of action of 2,4,6-triiodophenol is not completely understood but it is known that the inhibition of the enzyme 5-lipoxygenase is involved.
A preliminary exploratory analysis was done by simulating the typical pharmacokinetic profiles after single and multiple 240, 350, and 500 mg dose regimens based on the pharmacokinetic model and model parameter estimates obtained from the first phase I study, where 2,4,6-triiodophenol was given to healthy volunteers in a single dose ranging from 6 to 1200 mg.

LTB4 synthesis = assay: First phase I trial, plasma concentration vs LTB4 synthesis inhibition (EMAX); type: in vivo; conditions: Homo sapiens; healthy volunteers, single oral dose, EMAX type relationship; read-out: IC50 (level of drug in plasma eliciting half of maximal LTB4 synthesis inhibition)
Source text: as §1

[2] = tested on: arthritis induced by injection of type II collagen in the mouse; assay: Model of arthritis induced by type II collagen in mice (CIA), hind paw plethysmometry; type: in vivo; conditions: for Total hind paw volume (sum of both hind paws) / Oedema (difference in paw volume from basal values on day 21) in both hind paws: group mean n=10
Description: The aim of the study was to determine the anti-inflammatory activity of the test item in a model of arthritis induced by injection of type II collagen in the mouse (CIA) and to compare the activity of two different formulations: micronized and non-micronized.
Induction of arthritis was carried out by an initial exposure to type II bovine collagen by a subcutaneous injection at the base of the tail (induction phase).
After a recovery time of 21 days, animals received a booster injection and approximately 4-5 weeks after the first injection there was an immune response with arthritis appearing in the extremities in the majority of the cases.
Four experimental groups were used in the study with 10 animals in each group:
Group D: Positive control: FCA+vehicle B.I.D.
Group E: Micronized Test Item (Micro) 10 mg/kg B.I.D.
Group F: Non-Micronized test item 10 mg/kg B.I.D.
Group G: Reference item: Indomethacin 1 mg/kg Q.D.
The dose administered to groups E and F was 10 mg/kg.
The dose administered to group G was 1 mg/kg.
The doses of the test and reference items were expressed as mg/Kg of compound administered to each animal.
The test and reference items were administered in a solution of methylcellulose (0.25%: vehicle).
The positive control group received the vehicle (methylcellulose 0.25%).
The test and reference items, as well as the vehicle were administered orally at a dosing volume of 5 mls/kg.
The route of administration used was oral by use of an intragastric cannula.
On the day of start of the study each mouse was injected subcutaneously at the base of the tail with a first dose of 0.1 ml of an emulsion of bovine type II collagen (1 mg/mL) in Freund's Complete Adjuvant. Afterwards, on day 21 after this first injection, a second booster injection of type II collagen was administered to all animals. In this occasion the collagen suspension was done using Incomplete Freund's Adjuvant.
Coinciding with the second booster injection on day 21 treatment with the test or reference items was started to the corresponding animals.
Treatment with the test or reference items was carried out for 31 consecutive days (days 21-51 of the experimental period). Additionally, a recovery period was included at the end of the treatment period from day 52 to day 65 in order to evaluate the duration of any anti-inflammatory effect observed once dosing has been terminated.
The animals' hind paw volume was measured by plethysmometry one day before the 1st injection of collagen, again one day before the second (booster) collagen injection (basal values) and then daily after administration of test/reference item until the end of the study. During the recovery period at the end of the study, hind paw volume was measured three times per week.
Additionally the data was also represented graphically, depicting changes in total hind paw volume, as well as oedema (differences from basal (day 21) values).

[3] = day 22, oral treatment days 21-51
[4] = day 23, oral treatment days 21-51
[5] = day 26, oral treatment days 21-51
[6] = day 27, oral treatment days 21-51
[7] = day 29, oral treatment days 21-51
[8] = day 30, oral treatment days 21-51
[9] = day 33, oral treatment days 21-51
[10] = day 34, oral treatment days 21-51
[11] = day 35, oral treatment days 21-51
[12] = day 36, oral treatment days 21-51
[13] = day 37, oral treatment days 21-51
[14] = day 40, oral treatment days 21-51
[15] = day 41, oral treatment days 21-51
[16] = day 42, oral treatment days 21-51
[17] = day 43, oral treatment days 21-51
[18] = day 44, oral treatment days 21-51
[19] = day 47, oral treatment days 21-51
[20] = day 48, oral treatment days 21-51
[21] = day 49, oral treatment days 21-51
[22] = day 50, oral treatment days 21-51
[23] = day 51, oral treatment days 21-51
[24] = day 54, recovery period after treatment days 21-51
[25] = day 56, recovery period after treatment days 21-51
[26] = day 58, recovery period after treatment days 21-51
[27] = day 61, recovery period after treatment days 21-51
[28] = day 63, recovery period after treatment days 21-51
[29] = day 65, recovery period after treatment days 21-51

Q: With `Oc1c(I)cc(I)cc1I` [2,4,6-triiodophenol] as the compound, how does the safety and tolerability ([1]; single oral dose from 6 mg to 1200 mg) read?
A: very good safety and tolerability profiles

Q: What about the pharmacokinetic behavior ([1]; single oral dose, at least in the range from 240 to 700 mg) of the same compound?
A: predictable and dose-independent

Q: And the IC50 (LTB4 synthesis)?
A: 16.6 µg/mL (≈ 35.2 µM)

Q: With `COc1ccc2c(c1)c(CC(=O)O)c(C)n2C(=O)c1ccc(Cl)cc1` [Indomethacin, reference compound] as the compound, how does the “Total hind paw volume (sum of both hind paws)” value (shortened to “Total hind paw volume”) ([2]; day 0, before collagen and treatment) read?
A: 0.175

Q: What about the “Total hind paw volume” value ([2]; day 20, basal, before treatment) of the same compound?
A: 0.227

Q: And the “Oedema (difference in paw volume from basal values on day 21) in both hind paws” value [2, 3]?
A: 0.000

Q: And the “Total hind paw volume” value [2, 3]?
A: 0.227

Q: What about the “Oedema (difference in paw volume from basal values on day 21) in both hind paws” value [2, 4] of the same compound?
A: 0.000

Q: And the “Total hind paw volume” value [2, 4]?
A: 0.227

Q: And the “Oedema (difference in paw volume from basal values on day 21) in both hind paws” value [2, 5]?
A: 0.022

Q: And the “Total hind paw volume” value [2, 5]?
A: 0.249

Q: And the “Oedema (difference in paw volume from basal values on day 21) in both hind paws” value [2, 6]?
A: 0.001

Q: What about the “Total hind paw volume” value [2, 6] of the same compound?
A: 0.228

Q: And the “Oedema (difference in paw volume from basal values on day 21) in both hind paws” value [2, 7]?
A: 0.011

Q: And the “Total hind paw volume” value [2, 7]?
A: 0.237

Q: And the “Oedema (difference in paw volume from basal values on day 21) in both hind paws” value [2, 8]?
A: 0.012

Q: What about the “Total hind paw volume” value [2, 8] of the same compound?
A: 0.239

Q: And the “Oedema (difference in paw volume from basal values on day 21) in both hind paws” value [2, 9]?
A: 0.012

Q: What about the “Total hind paw volume” value [2, 9] of the same compound?
A: 0.238

Q: And the “Oedema (difference in paw volume from basal values on day 21) in both hind paws” value [2, 10]?
A: 0.013

Q: What about the “Total hind paw volume” value [2, 10] of the same compound?
A: 0.240

Q: What about the “Oedema (difference in paw volume from basal values on day 21) in both hind paws” value [2, 11] of the same compound?
A: 0.020

Q: What about the “Total hind paw volume” value [2, 11] of the same compound?
A: 0.246

Q: What about the “Oedema (difference in paw volume from basal values on day 21) in both hind paws” value [2, 12] of the same compound?
A: 0.012

Q: What about the “Total hind paw volume” value [2, 12] of the same compound?
A: 0.239

Q: What about the “Oedema (difference in paw volume from basal values on day 21) in both hind paws” value [2, 13] of the same compound?
A: −0.005

Q: And the “Total hind paw volume” value [2, 13]?
A: 0.222

Q: And the “Oedema (difference in paw volume from basal values on day 21) in both hind paws” value [2, 14]?
A: 0.028

Q: And the “Total hind paw volume” value [2, 14]?
A: 0.255

Q: What about the “Oedema (difference in paw volume from basal values on day 21) in both hind paws” value [2, 15] of the same compound?
A: 0.031

Q: What about the “Total hind paw volume” value [2, 15] of the same compound?
A: 0.257

Q: And the “Oedema (difference in paw volume from basal values on day 21) in both hind paws” value [2, 16]?
A: 0.021

Q: What about the “Total hind paw volume” value [2, 16] of the same compound?
A: 0.247

Q: What about the “Oedema (difference in paw volume from basal values on day 21) in both hind paws” value [2, 17] of the same compound?
A: 0.023

Q: What about the “Total hind paw volume” value [2, 17] of the same compound?
A: 0.250

Q: And the “Oedema (difference in paw volume from basal values on day 21) in both hind paws” value [2, 18]?
A: 0.011

Q: What about the “Total hind paw volume” value [2, 18] of the same compound?
A: 0.238

Q: What about the “Oedema (difference in paw volume from basal values on day 21) in both hind paws” value [2, 19] of the same compound?
A: 0.028

Q: What about the “Total hind paw volume” value [2, 19] of the same compound?
A: 0.254

Q: And the “Oedema (difference in paw volume from basal values on day 21) in both hind paws” value [2, 20]?
A: 0.025

Q: And the “Total hind paw volume” value [2, 20]?
A: 0.252

Q: What about the “Oedema (difference in paw volume from basal values on day 21) in both hind paws” value [2, 21] of the same compound?
A: 0.030

Q: And the “Total hind paw volume” value [2, 21]?
A: 0.256

Q: What about the “Oedema (difference in paw volume from basal values on day 21) in both hind paws” value [2, 22] of the same compound?
A: 0.030

Q: What about the “Total hind paw volume” value [2, 22] of the same compound?
A: 0.256

Q: And the “Oedema (difference in paw volume from basal values on day 21) in both hind paws” value [2, 23]?
A: 0.021

Q: What about the “Total hind paw volume” value [2, 23] of the same compound?
A: 0.248

Q: And the “Oedema (difference in paw volume from basal values on day 21) in both hind paws” value [2, 24]?
A: 0.040

Q: What about the “Total hind paw volume” value [2, 24] of the same compound?
A: 0.266

Q: What about the “Oedema (difference in paw volume from basal values on day 21) in both hind paws” value [2, 25] of the same compound?
A: 0.052

Q: What about the “Total hind paw volume” value [2, 25] of the same compound?
A: 0.279

Q: What about the “Oedema (difference in paw volume from basal values on day 21) in both hind paws” value [2, 26] of the same compound?
A: 0.058

Q: And the “Total hind paw volume” value [2, 26]?
A: 0.285

Q: What about the “Oedema (difference in paw volume from basal values on day 21) in both hind paws” value [2, 27] of the same compound?
A: 0.058

Q: What about the “Total hind paw volume” value [2, 27] of the same compound?
A: 0.28

Q: What about the “Oedema (difference in paw volume from basal values on day 21) in both hind paws” value [2, 28] of the same compound?
A: 0.064

Q: What about the “Total hind paw volume” value [2, 28] of the same compound?
A: 0.29

Q: And the “Oedema (difference in paw volume from basal values on day 21) in both hind paws” value [2, 29]?
A: 0.076

Q: And the “Total hind paw volume” value [2, 29]?
A: 0.30

Q: And the “effect on hind paw oedema (in words)” value ([2]; test item 10 mg/kg BID, Indomethacin 1 mg/kg Q.D, oral)?
A: significant anti-inflammatory response
